The text below walks through data of the pKa sets of Baltruschat and Czodrowski (2020).

The conditions of one series: acidic group.
For `CS(=O)(=O)c1ccc(NS(=O)(=O)C(F)(F)F)cc1`, the pKa is 2.84.

As for `C[Si](C)(CCl)CCCC(=O)O`, the pKa worked out at 4.97.

`Oc1ccc(/N=N/c2nc3ccccc3s2)c2cccnc12` returned a pKa of 7.2.

The molecule `Cn1c(N)nc2nc[nH]c2c1=O` showed a pKa of 10.4.

Molecule `CC1=NN(c2ccccc2)C(=O)/C1=C\c1c(C)nn(-c2ccccc2)c1O` displayed a pKa of 13.8.

`C[NH+](C)CCc1ccc(O)cc1`: the pKa worked out at 9.46.

`O=C([O-])CNC(=O)CNS(=O)(=O)c1ccccc1` had a pKa of 9.65.

As for `CC1(C)NC(=S)NC1=O`, the pKa amounted to 8.71.

Consider `O=C(O)CCCc1ccccc1`, for which the pKa was found to be 4.78.

`O=Cc1ccccc1C(=O)O` registered a pKa of 4.56.

The molecule `Nc1ccc(NS(=O)(=O)c2ccccc2)cc1` came in with a pKa of 9.05.

`Oc1ccc(Br)cc1Br` displayed a pKa of 7.77.

`[NH3+]CCCCCCC(=O)O`: the pKa turned out to be 4.44.

The molecule `Cc1ncc(C(=O)O)s1` came in with a pKa of 3.26.

Molecule `O=C(O)/C=C\c1cccc(Cl)c1` had a pKa of 3.71.

`c1ccc(CNc2nnc(-c3ccccc3)s2)cc1` yielded a pKa of 11.5.

For the molecule `Nc1ccc(B(O)O)c([N+](=O)[O-])c1`, the pKa is 9.64.

`NCCNC(=O)c1ccccc1` came in with a pKa of 9.13.

The molecule `O=C(O)c1ccc(I)cc1` gave a pKa of 3.99.

As to `Oc1ccccc1/C=N/c1ncc2nc[nH]c2n1`, the pKa was 9.19.

`NC(=S)Nc1ccc([N+](=O)[O-])cc1` returned a pKa of 10.8.

In turn, `[NH3+]C(CC(=O)[O-])C(=O)NC(CC(=O)O)C(=O)O` (stereo not drawn) displayed a pKa of 3.4.

`Nc1cc[nH+]c2c(O)cccc12` showed a pKa of 6.91.

In turn, `CCCC(=O)c1cc(C(C)=O)n[nH]1` had a pKa of 9.28.

The molecule `NS(=O)(=O)c1nccs1` had a pKa of 8.25.

In turn, `ON=C(c1ccccc1)c1ccccc1` displayed a pKa of 11.3.

For `Cn1c(=O)ccc2ccccc21`, the pKa was -0.71.

`CC1=C(C)/C(=C(\C)C(=O)O)CC1=O` showed a pKa of 3.1.

In the case of `O=c1ccccc(Br)c1O`, the pKa worked out at 5.96.

`c1ccc(-c2nc3ccccc3[nH]2)cc1` yielded a pKa of 11.9.

Regarding `CCN(CC)S(=O)(=O)c1ccccc1C(=O)O`, the pKa worked out at 2.96.

Consider `O=[N+]([O-])c1cccc(/C=N\O)c1`, for which the pKa stood at 10.7.

In turn, `O=C(O)CSCCc1ccccc1` displayed a pKa of 3.8.

Molecule `COc1ccc(C=O)cc1O` came in with a pKa of 8.89.

In the case of `O/C(=C/[n+]1ccccc1)c1ccccc1`, the pKa came to 4.8.

In turn, `Cc1ncc2c(c1O)C(=O)OC2` gave a pKa of 7.05.

As to `O=C1C[C@H]2C(=O)NC(=O)[C@H]2N1`, the pKa was 8.15.

Turning to `CCCCC(CC)C(=O)O[C@H]1O[C@@H](C(=O)O)[C@H](O)[C@@H](O)[C@@H]1O` (stereo partly drawn), the pKa is 3.08.

As for `NC(=O)Nc1[nH]c[nH+]c1C(=O)O`, the pKa was 2.

For the molecule `COc1ccc2c3c([nH]c2c1)C(C)=NCC3`, the pKa amounted to 15.3.

Molecule `NNC(=O)C1(F)C(F)(F)C(F)(F)C(F)(F)C(F)(F)C1(F)F` showed a pKa of 9.14.

Consider `CC1NCCc2c1[nH]c1ccc(N)cc21` (stereo not drawn), for which the pKa is 16.

Regarding `O=C([O-])/C(=N/O)c1ccccc1`, the pKa worked out at 11.6.

`O=S(=O)(Nc1nccs1)c1ccc(O)cc1` showed a pKa of 6.

`COc1ccc(C)c(C(=O)O)c1`: the pKa was 3.84.

For `CS(=O)O`, the pKa worked out at 2.35.

Turning to `Oc1cncnc1`, the pKa is 6.78.

In the case of `O=C(O)[C@H]1O[C@H]1C(=O)[O-]`, the pKa was determined as 3.92.

`CCCCOc1ccc(C(=O)O)cc1` yielded a pKa of 4.48.

For the molecule `S=C(Nc1ccc(Br)cc1)c1ccc(Cl)cc1`, the pKa turned out to be 10.2.

In turn, `Cc1cccc(OC(O)(CBr)c2ccccc2)c1` (stereo not drawn) displayed a pKa of 11.2.

With `Cc1cc(Nc2ccc(O)cc2)c(C(C)C)cc1O`, the pKa was 9.85.

`Cc1cc(C)c(C)c(C(=O)O)c1C` returned a pKa of 3.43.

As to `Cc1ccc(O)c(O)c1`, the pKa stood at 9.62.

Regarding `CCC(=O)c1cc(C(=O)c2ccccc2)n[nH]1`, the pKa was 9.14.

`COC(=O)[C@H](NC(=O)Cc1ccccc1)[C@@H]1SC(C)(C)[C@H]2C(=O)NC(=S)N12` yielded a pKa of 8.

For `Fc1ccc(NC(=S)c2ccc(Cl)cc2)cc1`, the pKa worked out at 10.4.

For `[O-][n+]1cccc(O)c1`, the pKa stood at 6.4.

On to `Nc1ccc(S(=O)(=O)Nc2ccccn2)cc1`, for which the pKa came out at 8.51.

The molecule `CC[NH+]1CCC[C@@H]1CNC(=O)c1c(OC)ccc(Cl)c1O` returned a pKa of 7.07.

Take `CCCCCCCCCC[NH2+]CCC(=O)O`: the pKa worked out at 3.57.

For `C[NH+](C)CCc1nnn[nH]1`, the pKa amounted to 4.59.

In turn, `C[NH2+]C(C)(C)C(=O)O` showed a pKa of 2.2.

In turn, `[NH3+]c1ccccc1O[C@H]1O[C@@H](C(=O)O)[C@H](O)[C@@H](O)[C@@H]1O` displayed a pKa of 3.3.

`O=C(O)CCCC1CCCCC1`: the pKa came out at 4.95.

Molecule `CC(=O)NBr` showed a pKa of 8.1.

`Cc1ccc(SCC(=O)O)cc1` displayed a pKa of 3.57.

In turn, `Cc1cc(C2(c3ccc(O)c(C)c3)OS(=O)(=O)c3c(Br)c(Br)c(Br)c(Br)c32)ccc1O` had a pKa of 7.53.

The molecule `O=c1cc(S(=O)(=O)[O-])[nH]c(=O)[nH]1` registered a pKa of 7.26.

`S=c1[nH]cnc2nn[nH]c12` gave a pKa of 4.6.

Molecule `Cc1ccc(S(=O)(=O)NCCC(=O)[O-])cc1` had a pKa of 11.2.

`Cc1ccc(S(=O)(=O)Nc2ccccc2)cc1` had a pKa of 8.46.

In the case of `O=C(O)[C@H]1C[C@@H]1c1ccccc1`, the pKa was 4.54.

In turn, `COc1ccc(O)cc1C` yielded a pKa of 10.2.

In the case of `C[n+]1ccc2cc(O)ccc2c1`, the pKa came to 6.06.

In turn, `SCc1ccccc1` showed a pKa of 9.43.

Still in this series, the particulars now being: basic group.
In turn, `CCc1ccc([C@@H]2CCC[NH+]2C)cn1` registered a pKa of 3.69.

For the molecule `c1cnc2c(c1)ccc1ncccc12`, the pKa is 4.

For the molecule `c1ccc(CN2CCCC2)cc1`, the pKa was 9.51.

On to `CCCCCCCCCCCCCCCCN(CCCCCCCCCCCCCCCC)C(=O)[C@H](C)NC(=O)[C@H](Cc1c[nH]cn1)NC(=O)CCCCC[N+](C)(C)C.[Br-]`, for which the pKa came to 7.2.

`N/C(CC/C(N)=N/O)=N\O` came in with a pKa of 5.97.

Turning to `Cn1c(N)nc2nc[nH]c2c1=O`, the pKa was 3.2.

As to `C1=C(c2ccco2)C2CCN1CC2`, the pKa amounted to 8.92.

As for `N/C(CC([NH3+])c1ccccc1)=N\O` (stereo not drawn), the pKa stood at 3.75.

As to `Cn1cc[nH+]c1-c1ccccn1`, the pKa came to 0.4.

In the case of `c1ccc2c(c1)N1CCN2CC1`, the pKa is 5.65.

Regarding `Cn1cccc1-c1cccnc1`, the pKa was 4.73.

`c1ccc(-c2nc3ccccc3s2)cc1` had a pKa of 0.7.

As for `CN(C)Cc1ccccc1CO`, the pKa came out at 8.78.

`CCc1c(C)c[nH]c1C` gave a pKa of 3.19.

On to `O=C([O-])c1ccc2ncccc2c1`, for which the pKa came out at 4.82.

As for `CP(=O)(Cc1ccccc1)c1ccccc1` (stereo not drawn), the pKa was -1.82.

Molecule `c1cnc2c(c1)ccc1c3c(cnc12)CCC3` showed a pKa of 5.78.

Take `C1CCN(N2CCCCC2)CC1`: the pKa came out at 7.09.

On to `CCN(CC)Cc1ccccc1OC`, for which the pKa amounted to 10.2.

`Oc1ccccc1/C=N/c1ncc2nc[nH]c2n1` had a pKa of 3.38.

Consider `CC1=CSC2=NCCCN12`, for which the pKa worked out at 10.3.

In turn, `C=C(C)C(=O)OC(C)CN(CC)CC` (stereo not drawn) gave a pKa of 8.65.

Take `CC(C)C[C@H](N)C(=O)[O-]`: the pKa was determined as 9.62.

`COc1cc2c(cc1OC)[C@]13CCN4CC5=CCO[C@H]6CC(=O)N2[C@H]1C6[C@@]5(S(=O)(=O)[O-])C[C@H]43` (stereo partly drawn) showed a pKa of 7.45.

Molecule `Cc1cc(=O)n(C)n1-c1ccccc1` displayed a pKa of 2.4.

Molecule `Cc1n[nH]c2ccc(N)cc12` gave a pKa of 5.25.

`O=[N+]([O-])c1ccc(Nc2ccccc2)cc1`: the pKa is -2.5.

With `Cc1cc(C)n(Cc2cc(C)n(C)n2)[nH+]1`, the pKa amounted to 0.6.

On to `CC1(C)CCC(C2CCC(C)(C)[NH2+]2)N1` (stereo not drawn), for which the pKa worked out at 6.95.

Molecule `N#CN` had a pKa of 1.1.

As for `COC(=O)c1ccccc1N(C)C`, the pKa is 5.55.

`C/C(=C\C=C\C(C)C(=O)[O-])[C@H]1CN[C@H](C(=O)[O-])[C@H]1CC(=O)[O-]` (stereo partly drawn): the pKa came out at 9.82.

For `O=C([O-])C(CO)NCc1cc([N+](=O)[O-])ccc1[O-]` (stereo not drawn), the pKa is 9.75.

Molecule `CNc1ccccc1C` had a pKa of 4.59.

`COc1ccnc2ccccc12` gave a pKa of 6.45.

Take `Nc1cnccn1`: the pKa was determined as 3.14.

Consider `COc1ccc2c3c([nH]c2c1)C(C)=NCC3`, for which the pKa is 9.72.

Consider `C[NH2+]CCN(C)CC[NH3+]`, for which the pKa worked out at 3.38.

`Cc1c(C(=O)[O-])sc2cc(Cn3ccnc3)ccc12` gave a pKa of 6.35.

As to `NCCCCC[NH3+]`, the pKa is 9.73.

The molecule `COc1ccc(CN)c([N+](=O)[O-])c1` registered a pKa of 8.77.

`CNN` had a pKa of 7.87.

As for `CN(CC[NH+](C)C)c1ccnc2cccc([N+](=O)[O-])c12`, the pKa worked out at 4.86.

Molecule `Oc1cncnc1` displayed a pKa of 1.87.

Regarding `CC(C)NC[Si](C)(C)C`, the pKa was determined as 10.8.

Regarding `CCCNc1ccncc1S(=O)(=O)NC(=O)NC(C)C`, the pKa was 7.58.

With `CC(C)CCCN(C)CCCNC(=O)/C=N/[O-]`, the pKa is 10.2.

As for `C1CNC[NH2+]C1`, the pKa came out at 4.71.

The molecule `[O-]c1nc([O-])c2[nH]cnc2n1` came in with a pKa of 11.1.

Regarding `Nc1ccc(S(=O)(=O)Nc2ccccn2)cc1`, the pKa is 2.58.

As to `Cc1cc(Br)cc(C)c1N`, the pKa amounted to 3.54.

For the molecule `C[NH+](C)CCc1nnn[nH]1`, the pKa was -2.8.

Molecule `Cc1ccc(N)cc1-c1cc([NH3+])ccc1C` gave a pKa of 3.8.

`C[Si](C)(CN)c1ccccc1` had a pKa of 10.4.

As for `CN(C)CCNCCN(C)C`, the pKa is 9.59.

For the molecule `Cn1ccc(=NC(=O)c2ccccc2)cc1`, the pKa was found to be 9.89.

The molecule `OCCCCc1ccncc1` displayed a pKa of 6.01.

Turning to `CC(N)CCc1ccccc1` (stereo not drawn), the pKa came out at 9.78.

As to `NS(=O)(=O)c1ccccc1C(=O)O`, the pKa stood at 3.14.

For the molecule `CC[C@]12CCCN3CC[C@@]4(c5cccc(OC)c5N[C@H]4CC1)[C@@H]32`, the pKa is 8.46.

`C[NH2+]CCN` came in with a pKa of 7.49.

In turn, `Cc1cc(N)c2ccccc2n1` displayed a pKa of 9.44.

As usually defined, the pKa is the pH at which an ionisable group is half protonated. Lower therefore signals a stronger acid or weaker base.
